Where only a bound is given, the exact number is not on record here.

For the experiment, the target named is BRD4 (BDI_K57-E168) (Homo sapiens, UniProt O60885). Description: TR-FRET bromodomain binding assay, BRD4 BDI.
Regarding `Cc1cc(F)cc(C)c1Oc1ccc(C(C)(C)O)cc1-c1cn(C)c(=O)cc1O[C@H]1CC[C@H](N2C(=O)CNC2=O)CC1` [Example 125, 3-[trans-4-({5-[2-(4-fluoro-2,6-dimethylphenoxy)-5-(2-hydroxypropan-2-yl)phenyl]-1-methyl-2-oxo-1,2-dihydropyridin-4-yl}oxy)cyclohexyl]imidazolidine-2,4-dione], the inhibition constant Ki (commonly the equilibrium dissociation constant of an inhibitor or competing ligand from its target) is greater than 13 µM.
The value for `Cc1cc(F)cc(C)c1Oc1ccc(C(C)(C)O)cc1-c1cn(C)c(=O)cc1O[C@H]1CC[C@H](NC(=O)N2CCOCC2)CC1` [Example 122, N-[trans-4-({5-[2-(4-fluoro-2,6-dimethylphenoxy)-5-(2-hydroxypropan-2-yl)phenyl]-1-methyl-2-oxo-1,2-dihydropyridin-4-yl}oxy)cyclohexyl]morpholine-4-carboxamide] was 3.67 µM; that for `CC(=O)N1CCC(=O)N1[C@H]1CC[C@H](Oc2cc(=O)n(C)cc2-c2cc(C(C)(C)O)ccc2Oc2c(C)cc(F)cc2C)CC1` [Example 112, 4-{[trans-4-(2-acetyl-5-oxopyrazolidin-1-yl)cyclohexyl]oxy}-5-[2-(4-fluoro-2,6-dimethylphenoxy)-5-(2-hydroxypropan-2-yl)phenyl]-1-methylpyridin-2(1H)-one] was 4.86 µM; that for `Cc1cc(F)cc(C)c1Oc1ccc(C(C)(C)O)cc1-c1cn(C)c(=O)cc1O[C@H]1C[C@@H](C(=O)O)C1` [Example 97, cis-3-({5-[2-(4-fluoro-2,6-dimethylphenoxy)-5-(2-hydroxypropan-2-yl)phenyl]-1-methyl-2-oxo-1,2-dihydropyridin-4-yl}oxy)cyclobutane-1-carboxylic acid] was 9.53 µM.
The value for `Cc1cc(F)cc(C)c1Oc1ccc(C(C)(C)O)cc1-c1cn(C)c(=O)cc1O[C@H]1CC[C@H](C#N)CC1` [Example 69, trans-4-({5-[2-(4-fluoro-2,6-dimethylphenoxy)-5-(2-hydroxypropan-2-yl)phenyl]-1-methyl-2-oxo-1,2-dihydropyridin-4-yl}oxy)cyclohexane-1-carbonitrile] was 7.25 µM.
The value for `Cc1cc(F)cc(C)c1Oc1ccc(C(C)(C)O)cc1-c1cn(C)c(=O)cc1O[C@H]1CC[C@H](N2C(=O)N[C@H](C)C2=O)CC1` [Example 132, (5R)-3-[trans-4-({5-[2-(4-fluoro-2,6-dimethylphenoxy)-5-(2-hydroxypropan-2-yl)phenyl]-1-methyl-2-oxo-1,2-dihydropyridin-4-yl}oxy)cyclohexyl]-5-methylimidazolidine-2,4-dione] was 4.21 µM; that for `CC(=O)NC[C@@H]1CC[C@H](Oc2cc(=O)n(C)cc2-c2cc(C(C)(C)O)ccc2Oc2c(C)cc(F)cc2C)[C@H]1C` [Example 22, N-{[(1R,2S,3S)-3-({5-[2-(4-fluoro-2,6-dimethylphenoxy)-5-(2-hydroxypropan-2-yl)phenyl]-1-methyl-2-oxo-1,2-dihydropyridin-4-yl}oxy)-2-methylcyclopentyl]methyl}acetamide] was 2.87 µM; that for `COCC(=O)N1CCC(Oc2cc(=O)n(C)cc2-c2cc(C(C)(C)O)cnc2Oc2c(C)cc(F)cc2C)CC1` [Example 26, 2′-(4-fluoro-2,6-dimethylphenoxy)-5′-(2-hydroxypropan-2-yl)-4-{[1-(methoxyacetyl)piperidin-4-yl]oxy}-1-methyl[3,3′-bipyridin]-6(1H)-one] was 8.85 µM.
On to `COCCCN(C(=O)C1(C)CC1)[C@H]1CC[C@H](Oc2cc(=O)n(C)cc2-c2cc(C(C)(C)O)ccc2Oc2c(C)cc(F)cc2C)CC1` [Example 65, N-[trans-4-({5-[2-(4-fluoro-2,6-dimethylphenoxy)-5-(2-hydroxypropan-2-yl)phenyl]-1-methyl-2-oxo-1,2-dihydropyridin-4-yl}oxy)cyclohexyl]-N-(3-methoxypropyl)-1-methylcyclopropane-1-carboxamide], for which the Ki amounted to 1.86 µM.
The value for `Cc1cc(F)cc(C)c1Oc1ccc(C(C)(C)O)cc1-c1cn(C)c(=O)cc1O[C@H]1CC[C@H](N2CCNC2=O)CC1` [Example 35, 5-[2-(4-fluoro-2,6-dimethylphenoxy)-5-(2-hydroxypropan-2-yl)phenyl]-1-methyl-4-{[trans-4-(2-oxoimidazolidin-1-yl)cyclohexyl]oxy}pyridin-2(1H)-one] was 1.81 µM.
The value for `Cc1cc(F)cc(C)c1Oc1ccc(C(C)(C)O)cc1-c1cn(C)c(=O)cc1O[C@H]1CC[C@H](N2CCCCC2=O)CC1` [Example 29, 5-[2-(4-fluoro-2,6-dimethylphenoxy)-5-(2-hydroxypropan-2-yl)phenyl]-1-methyl-4-{[trans-4-(2-oxopiperidin-1-yl)cyclohexyl]oxy}pyridin-2(1H)-one] was 2.22 µM; that for `CCNC(=O)[C@H]1C[C@@H](Oc2cc(=O)n(C)cc2-c2cc(C(C)(C)O)ccc2Oc2c(C)cc(F)cc2C)C1` [Example 95, cis-N-ethyl-3-({5-[2-(4-fluoro-2,6-dimethylphenoxy)-5-(2-hydroxypropan-2-yl)phenyl]-1-methyl-2-oxo-1,2-dihydropyridin-4-yl}oxy)cyclobutane-1-carboxamide] was 1.58 µM.
`Cc1cc(F)cc(C)c1Oc1ccc(C(C)(C)O)cc1-c1cn(C)c(=O)cc1O[C@H]1CC[C@H](N2CCCC2=O)CC1` [Example 24, 5-[2-(4-fluoro-2,6-dimethylphenoxy)-5-(2-hydroxypropan-2-yl)phenyl]-1-methyl-4-{[trans-4-(2-oxopyrrolidin-1-yl)cyclohexyl]oxy}pyridin-2(1H)-one] gave a Ki of 2.86 µM.
The value for `Cc1cc(F)cc(C)c1Oc1ncc(C(C)(C)O)cc1-c1cn(C)c(=O)cc1O[C@H]1CC[C@H](N2CCCC2=O)CC1` [Example 60, 2′-(4-fluoro-2,6-dimethylphenoxy)-5′-(2-hydroxypropan-2-yl)-1-methyl-4-{[trans-4-(2-oxopyrrolidin-1-yl)cyclohexyl]oxy}[3,3′-bipyridin]-6(1H)-one] was 4.66 µM.
The compound `Cc1cc(F)cc(C)c1Oc1ccc(C(C)(C)O)cc1-c1cn(C)c(=O)cc1O[C@H]1CC[C@H](NC(=O)C2(C)CC2)CC1` [Example 51, N-[trans-4-({5-[2-(4-fluoro-2,6-dimethylphenoxy)-5-(2-hydroxypropan-2-yl)phenyl]-1-methyl-2-oxo-1,2-dihydropyridin-4-yl}oxy)cyclohexyl]-1-methylcyclopropane-1-carboxamide] returned a Ki greater than 13 µM.
`Cc1cc(F)cc(C)c1Oc1ccc(C(C)(C)O)cc1-c1cn(C)c(=O)cc1O[C@H]1CC[C@H](C(C)(C)O)CC1` [Example 67, 5-[2-(4-fluoro-2,6-dimethylphenoxy)-5-(2-hydroxypropan-2-yl)phenyl]-4-{[trans-4-(2-hydroxypropan-2-yl)cyclohexyl]oxy}-1-methylpyridin-2(1H)-one] gave a Ki of 2.83 µM.
`COC(=O)NC[C@H]1C[C@H](Oc2cc(=O)n(C)cc2-c2cc(C(C)(C)O)ccc2Oc2c(C)cc(F)cc2C)C1` [Example 7, methyl {[trans-3-({5-[2-(4-fluoro-2,6-dimethylphenoxy)-5-(2-hydroxypropan-2-yl)phenyl]-1-methyl-2-oxo-1,2-dihydropyridin-4-yl}oxy)cyclobutyl]methyl}carbamate] showed a Ki of 0.906 µM.
The value for `Cc1cc(F)cc(C)c1Oc1ccc(C(C)(C)O)cc1-c1cn(C)c(=O)cc1O[C@H]1CC[C@H](N2C(=O)CN(C)C2=O)CC1` [Example 78, 3-[trans-4-({5-[2-(4-fluoro-2,6-dimethylphenoxy)-5-(2-hydroxypropan-2-yl)phenyl]-1-methyl-2-oxo-1,2-dihydropyridin-4-yl}oxy)cyclohexyl]-1-methylimidazolidine-2,4-dione] was 4.65 µM; that for `Cc1cc(F)cc(C)c1Oc1ccc(C(C)(C)O)cc1-c1cn(C)c(=O)cc1O[C@H]1CC[C@H](NC(=O)C23CCC(NC(=O)OC(C)(C)C)(C2)C3)CC1` (relative stereo) [Example 103, tert-butyl (4-{[trans-4-({5-[2-(4-fluoro-2,6-dimethylphenoxy)-5-(2-hydroxypropan-2-yl)phenyl]-1-methyl-2-oxo-1,2-dihydropyridin-4-yl}oxy)cyclohexyl]carbamoyl}bicyclo[2.1.1]hexan-1-yl)carbamate] was 8.01 µM; that for `Cc1cc(F)cc(C)c1Oc1ccc(C(C)(C)O)cc1-c1cn(C)c(=O)cc1O[C@H]1CC[C@H](N2C(=O)CCC2=O)CC1` [Example 44, 1-[trans-4-({5-[2-(4-fluoro-2,6-dimethylphenoxy)-5-(2-hydroxypropan-2-yl)phenyl]-1-methyl-2-oxo-1,2-dihydropyridin-4-yl}oxy)cyclohexyl]pyrrolidine-2,5-dione] was 3.38 µM.
The result for `Cc1cc(F)cc(C)c1Oc1ccc(C(C)(C)O)cc1-c1cn(C)c(=O)cc1O[C@H]1CC[C@H](NS(C)(=O)=O)CC1` [Example 46, N-[trans-4-({5-[2-(4-fluoro-2,6-dimethylphenoxy)-5-(2-hydroxypropan-2-yl)phenyl]-1-methyl-2-oxo-1,2-dihydropyridin-4-yl}oxy)cyclohexyl]methanesulfonamide] reads 5.45 µM; that for `COC(=O)N[C@H]1CC[C@H](Oc2cc(=O)n(C)cc2-c2cc(C(C)(C)O)cnc2Oc2c(C)cc(C(C)(C)O)cc2C)CC1` [Example 25, methyl [trans-4-({5′-(2-hydroxypropan-2-yl)-2′-[4-(2-hydroxypropan-2-yl)-2,6-dimethylphenoxy]-1-methyl-6-oxo[1,6-dihydro[3,3′-bipyridine]]-4-yl}oxy)cyclohexyl]carbamate], 2.22 µM; that for `CC(=O)NN[C@H]1CC[C@@H](Oc2cc(=O)n(C)cc2-c2cc(C(C)(C)O)ccc2Oc2c(C)cc(F)cc2C)CC1` [Example 99, N′-[cis-4-({5-[2-(4-fluoro-2,6-dimethylphenoxy)-5-(2-hydroxypropan-2-yl)phenyl]-1-methyl-2-oxo-1,2-dihydropyridin-4-yl}oxy)cyclohexyl]acetohydrazide], 10.4 µM.
The value for `Cc1cc(F)cc(C)c1Oc1ccc(C(C)(C)O)cc1-c1cn(C)c(=O)cc1O[C@H]1CC[C@H](NC(=O)C(F)(F)F)CC1` [Example 117, 2,2,2-trifluoro-N-[trans-4-({5-[2-(4-fluoro-2,6-dimethylphenoxy)-5-(2-hydroxypropan-2-yl)phenyl]-1-methyl-2-oxo-1,2-dihydropyridin-4-yl}oxy)cyclohexyl]acetamide] was 3.57 µM.

The values are drawn from patent publication US20210047304A1, “Bromodomain Inhibitors” (AbbVie Inc., priority 2016, published 2021).
